Data: PMC2694832, “Pharmacokinetics, tissue distribution and mass balance of radiolabeled dihydroartemisinin in male rats” (Malaria Journal, 2009)

Experiment: Tissue distribution of [^14C] DHA
Type: in vivo, rats
Settings: for Total Amounts of radioactivity in all measured tissues per gram / % of total AUC / Half-lives of radioactivity / Tissue AUC of radioactivity / Distribution of radioactivity: male rats i.v. 3 mg/20 μCi/kg
Method: Rats treated with a single [^14C] DHA dose of 3 mg/20 μCi/kg intravenously (5 rats per group) were anesthaetized by isofluorane and euthanized via cardiac puncture at 1, 6, 24, 48, 72, 96, and 192 hours, post-dosing. Blood, liver, brain, eyes, adrenals, muscle, lungs, heart, liver, kidneys, spleen, stomach, small intestine, large intestine, perirenal fat and bone marrow samples were removed from each animal by gross dissection. The gastrointestinal tract (GI) was separated into the stomach (oesophagus and stomach), small intestine, and large intestine. Contents were procured from each GI segment. After flushing with saline, these and other tissues were stored. Tissues were rinsed gently, but thoroughly with water to remove remaining traces of blood before storage. Dissecting instruments were also washed between tissue procurements to avoid cross-contamination.
For most of the tissues 20% (w/w) aqueous homogenates of the tissue were prepared. Aqueous homogenates of the faecal and GI content samples were also prepared. Metabolism cages were washed with a solution of 2% Count-off® and the volume was measured. Radioactivity in the plasma samples and in aliquots (approx. 0.02–1.0 ml) of urine and cage washings was determined. The blood cells (primarily erythrocytes), perirenal fat (approx. 0.2 g), bone marrow samples (approx. 0.1 ml), and approximately 300-μl aliquots of the homogenates of faeces, liver, kidneys, heart, brain, stomach and carcass were solubilized with SolvableTM tissue solubilizer (Perkin-Elmer Life and Analytical Sciences, Boston, MA). The homogenates of faeces, stomach content, and intestinal contents were extracted with 50% methanol for 24 hours. Aliquots of blood and pooled urine samples from selected intervals were also analysed for DHA content directly.
Total radioactivity in the collected tissue samples were quantified in duplicate. Weighed tissue aliquots (~0.2 g) were digested overnight in 2 ml of Solvable® tissue solubilizer (Perkin-Elmer Life and Analytical Sciences, Boston, MA) at 50°C. Coloured samples were decolourized by adding a maximum of 0.2 ml of 30% H2O2 for 30–60 minutes. Scintillation cocktail (Hyonic Fluor; Perkin-Elmer Boston. Massachusetts, USA) was then added and radioactivity determined in a Perkin-Elmer Tri-Carb 3100 TR scintillation spectrophotometer (Packard Instrument Co., Downers Grove, Illinois, USA). Faeces and intestinal contents were thoroughly homogenized before taking aliquots. Plasma was also analysed using the HPLC-ECD system to measure the concentration of unchanged DHA, as described by Li et al.

C[C@@H]1CC[C@H]2[C@@H]([14CH3])C(O)O[C@@H]3O[C@@]4(C)CC[C@@H]1[C@]32OO4 (stereo partly drawn) [[^14C] DHA, [16-^14C] DHA]
Total Amounts of radioactivity in all measured tissues per gram (1 hr): 87,187 ng equivalents/tissue gram | Total Amounts of radioactivity in all measured tissues per gram (1 hr, listed as [^14C]-dihydroartemisinin): 87186.55 ng equivalents/tissue gram | radioactivity in the total measured tissues amassed in the small intestine and its content (1 hr, rats i.v. 3 mg/20 μCi/kg): approximately 62.6% | Total Amounts of radioactivity in all measured tissues per gram (6 hr): 86023 ng equivalents/tissue gram | Total Amounts of radioactivity in all measured tissues per gram (6 hr, listed as [^14C]-dihydroartemisinin): 86023.26 ng equivalents/tissue gram | Total Amounts of radioactivity in all measured tissues per gram (24 hr): 21,457 ng equivalents/tissue gram | Total Amounts of radioactivity in all measured tissues per gram (24 hr, listed as [^14C]-dihydroartemisinin): 21457.06 ng equivalents/tissue gram | Total Amounts of radioactivity in all measured tissues per gram (48 hr): 16,390 ng equivalents/tissue gram | Total Amounts of radioactivity in all measured tissues per gram (48 hr, listed as [^14C]-dihydroartemisinin): 16390.68 ng equivalents/tissue gram | Total Amounts of radioactivity in all measured tissues per gram (72 hr): 15,831 ng equivalents/tissue gram | Total Amounts of radioactivity in all measured tissues per gram (72 hr, listed as [^14C]-dihydroartemisinin): 15831.77 ng equivalents/tissue gram | Total Amounts of radioactivity in all measured tissues per gram (96 hr): 11,385 ng equivalents/tissue gram | Total Amounts of radioactivity in all measured tissues per gram (96 hr, listed as [^14C]-dihydroartemisinin): 11385.67 ng equivalents/tissue gram | Total Amounts of radioactivity in all measured tissues per gram (192 hr): 13,961 ng equivalents/tissue gram | Total Amounts of radioactivity in all measured tissues per gram (192 hr, listed as [^14C]-dihydroartemisinin): 13961.18 ng equivalents/tissue gram | % of total AUC (Adrenals): 10.59% | Half-lives of radioactivity (Adrenals): 92.48 ± 44.34 h | Tissue AUC of radioactivity (Adrenals): 448,390 ng·hr/g | Tissue AUC of radioactivity (Adrenals, listed as [^14C]-dihydroartemisinin): 448390 ± 273502 ng·h/g | Distribution of radioactivity (Blood, 1 hr): 936.19 ng equivalents/tissue gram | Distribution of radioactivity (Blood, 6 hr): 795.07 ng equivalents/tissue gram | Distribution of radioactivity (Blood, 24 hr): 366.76 ng equivalents/tissue gram | Distribution of radioactivity (Blood, 48 hr): 252.05 ng equivalents/tissue gram | Distribution of radioactivity (Blood, 72 hr): 194.59 ng equivalents/tissue gram | Distribution of radioactivity (Blood, 96 hr): 130.92 ng equivalents/tissue gram | Distribution of radioactivity (Blood, 192 hr): 118.71 ng equivalents/tissue gram | % of total AUC (Blood): 1.07% | Half-lives of radioactivity (Blood): 122.13 ± 8.73 h | Tissue AUC of radioactivity (Blood): 45463 ± 6810 ng·h/g | % of total AUC (Brain): 0.81% | Half-lives of radioactivity (Brain): 72.21 ± 6.33 h | Tissue AUC of radioactivity (Brain): 34,189 ng·hr/g | Tissue AUC of radioactivity (Brain, listed as [^14C]-dihydroartemisinin): 34189 ± 4885 ng·h/g | % of total AUC (Eyes): 0.39% | Half-lives of radioactivity (Eyes): 75.22 ± 9.40 h | Tissue AUC of radioactivity (Eyes): 16519 ± 3048 ng·h/g | % of total AUC (Fat): 0.60% | Half-lives of radioactivity (Fat): 131.69 ± 21.94 h | Tissue AUC of radioactivity (Fat): 25253 ± 1490 ng·h/g | Distribution of radioactivity (Heart, 1 hr): 1512.27 ng equivalents/tissue gram | Distribution of radioactivity (Heart, 6 hr): 1107.89 ng equivalents/tissue gram | Distribution of radioactivity (Heart, 24 hr): 647.58 ng equivalents/tissue gram | Distribution of radioactivity (Heart, 48 hr): 527.3 ng equivalents/tissue gram | Distribution of radioactivity (Heart, 72 hr): 568.43 ng equivalents/tissue gram | Distribution of radioactivity (Heart, 96 hr): 377.26 ng equivalents/tissue gram | Distribution of radioactivity (Heart, 192 hr): 443.20 ng equivalents/tissue gram | % of total AUC (Heart): 2.47% | Half-lives of radioactivity (Heart): 74.35 ± 25.84 h | Tissue AUC of radioactivity (Heart): 104,598 ng·hr/g | Tissue AUC of radioactivity (Heart, listed as [^14C]-dihydroartemisinin): 104598 ± 24036 ng·h/g | Distribution of radioactivity (Kidneys, 1 hr): 4097.87 ng equivalents/tissue gram | Distribution of radioactivity (Kidneys, 6 hr): 4502.00 ng equivalents/tissue gram | Distribution of radioactivity (Kidneys, 24 hr): 2535.56 ng equivalents/tissue gram | Distribution of radioactivity (Kidneys, 48 hr): 2324.72 ng equivalents/tissue gram | Distribution of radioactivity (Kidneys, 72 hr): 3286.27 ng equivalents/tissue gram | Distribution of radioactivity (Kidneys, 96 hr): 1802.63 ng equivalents/tissue gram | Distribution of radioactivity (Kidneys, 192 hr): 1819.89 ng equivalents/tissue gram | % of total AUC (Kidneys): 4.53% | Half-lives of radioactivity (Kidneys): 77.90 ± 8.41 h | Tissue AUC of radioactivity (Kidneys): 191,781 ng·hr/g | Tissue AUC of radioactivity (Kidneys, listed as [^14C]-dihydroartemisinin): 191781 ± 66422 ng·h/g | Distribution of radioactivity (LI Content, 1 hr): 2914.59 ng equivalents/tissue gram | Distribution of radioactivity (LI Content, 6 hr): 35567.01 ng equivalents/tissue gram | Distribution of radioactivity (LI Content, 24 hr): 5127.28 ng equivalents/tissue gram | Distribution of radioactivity (LI Content, 48 hr): 2037.53 ng equivalents/tissue gram | Distribution of radioactivity (LI Content, 72 hr): 1426.62 ng equivalents/tissue gram | Distribution of radioactivity (LI Content, 96 hr): 491.66 ng equivalents/tissue gram | Distribution of radioactivity (LI Content, 192 hr): 1333.83 ng equivalents/tissue gram | % of total AUC (LI Content): 13.90% | Half-lives of radioactivity (LI Content): 37.20 ± 6.08 h | Tissue AUC of radioactivity (LI Content): 588,542 ng·hr/g | Tissue AUC of radioactivity (LI Content, listed as [^14C]-dihydroartemisinin): 588542 ± 104261 ng·h/g | Distribution of radioactivity (Large intestine (LI), 1 hr): 1818.56 ng equivalents/tissue gram | Distribution of radioactivity (Large intestine (LI), 6 hr): 8394.43 ng equivalents/tissue gram | Distribution of radioactivity (Large intestine (LI), 24 hr): 1420.58 ng equivalents/tissue gram | Distribution of radioactivity (Large intestine (LI), 48 hr): 562.96 ng equivalents/tissue gram | Distribution of radioactivity (Large intestine (LI), 72 hr): 509.29 ng equivalents/tissue gram | Distribution of radioactivity (Large intestine (LI), 96 hr): 220.41 ng equivalents/tissue gram | Distribution of radioactivity (Large intestine (LI), 192 hr): 304.72 ng equivalents/tissue gram | % of total AUC (Large intestine (LI)): 1.66% | Half-lives of radioactivity (Large intestine (LI)): 62.53 ± 43.59 h | Tissue AUC of radioactivity (Large intestine (LI)): 70,217 ng·hr/g | Tissue AUC of radioactivity (Large intestine (LI), listed as [^14C]-dihydroartemisinin): 70217 ± 25001 ng·h/g | Distribution of radioactivity (Liver, 1 hr): 4594.85 ng equivalents/tissue gram | Distribution of radioactivity (Liver, 6 hr): 3516.69 ng equivalents/tissue gram | Distribution of radioactivity (Liver, 24 hr): 1403.29 ng equivalents/tissue gram | Distribution of radioactivity (Liver, 48 hr): 1104.94 ng equivalents/tissue gram | Distribution of radioactivity (Liver, 72 hr): 1503.74 ng equivalents/tissue gram | Distribution of radioactivity (Liver, 96 hr): 842.90 ng equivalents/tissue gram | Distribution of radioactivity (Liver, 192 hr): 1270.24 ng equivalents/tissue gram | % of total AUC (Liver): 4.07% | Half-lives of radioactivity (Liver): 95.18 ± 37.90 h | Tissue AUC of radioactivity (Liver): 172,474 ng·hr/g | Tissue AUC of radioactivity (Liver, listed as [^14C]-dihydroartemisinin): 172474 ± 85780 ng·h/g | Distribution of radioactivity (Lungs, 1 hr): 1161.72 ng equivalents/tissue gram | Distribution of radioactivity (Lungs, 6 hr): 1040.99 ng equivalents/tissue gram
